Our source for the inhibition and residual activity values is ChEMBL document CHEMBL5696442, “Discovery of type II inhibitors of TGFβ-activated kinase 1 (TAK1) and mitogen-activated protein kinase kinase kinase kinase 2 (MAP4K2)” (J Med Chem, 2015).

In experiment [1] the target is Mitogen-activated protein kinase kinase kinase kinase 4 (Homo sapiens, UniProt O95819). As to the kind of experiment: Inhibition of MAP4K4 (unknown origin) at 1 uM by Ambit Kinomescan binding assay relative to control.
For experiment [2], the target named is Proto-oncogene tyrosine-protein kinase Src (Homo sapiens, UniProt P12931). As to the kind of experiment: Inhibition of SRC (unknown origin) at 1 uM by Ambit Kinomescan binding assay relative to control.
The target in experiment [3] is 1-phosphatidylinositol 3-phosphate 5-kinase (Homo sapiens) (UniProt Q9Y2I7). As to the kind of experiment: Inhibition of PIP5K3 ATP labeling site in human A-375 cells at 5 uM by KiNativ Profiling analysis relative to control. The experiment is classed as cell-based.
For experiment [4], the target named is Muscle, skeletal receptor tyrosine-protein kinase (Homo sapiens) (UniProt O15146). As to the kind of experiment: Inhibition of MUSK (unknown origin) at 1 uM by Ambit Kinomescan binding assay relative to control; values are per cent of control.
Experiment [5] has as its target Calcium-dependent protein kinase 1 (Plasmodium falciparum) (UniProt P62344). As to the kind of experiment: Inhibition of Plasmodium falciparum PFCDPK1 at 1 uM by Ambit Kinomescan binding assay relative to control; values are per cent of control.
The target in experiment [6] is Vascular endothelial growth factor receptor 3 (Homo sapiens) (UniProt P35916). As to the kind of experiment: Inhibition of FLT4 (unknown origin) at 10 uM by Ambit Kinomescan binding assay relative to control.
Experiment [7] concerns the target Ribosomal protein S6 kinase alpha-5 (Homo sapiens) (UniProt O75582). As to the kind of experiment: Inhibition of C-terminal RPS6KA5 kinase domain 2 (unknown origin) at 10 uM by Ambit Kinomescan binding assay.
The target in experiment [8] is Serine/threonine-protein kinase SIK2 (Homo sapiens) (UniProt Q9H0K1). As to the kind of experiment: Inhibition of SIK2 (unknown origin) at 10 uM by Ambit Kinomescan binding assay.
Experiment [9] has as its target Wee1-like protein kinase (Homo sapiens) (UniProt P30291). As to the kind of experiment: Inhibition of WEE1 (unknown origin) at 10 uM by Ambit Kinomescan binding assay.
Experiment [10] deals with Epidermal growth factor receptor (Homo sapiens) (UniProt P00533). As to the kind of experiment: Inhibition of EGFR ACT labeling site harbouring ITDFGLAKLLGAEEK in human A-375 cells at 0.5 uM by KiNativ Profiling analysis relative to control. In kind it is cell-based.
Experiment [11] concerns the target Interleukin-1 receptor-associated kinase 1 (Homo sapiens) (UniProt P51617). As to the kind of experiment: Inhibition of IRAK1 Lys2 labeling site in human A-375 cells at 0.5 uM by KiNativ Profiling analysis relative to control. In kind it is cell-based.
The target in experiment [12] is Serine/threonine-protein kinase WNK4 (Homo sapiens) (UniProt Q96J92). As to the kind of experiment: Inhibition of Wnk4 Lys2 labeling site in human A-375 cells at 0.5 uM by KiNativ Profiling analysis relative to control. The experiment is classed as cell-based.
Experiment [13] in a line: Inhibition of KHS1/2 K2 labeling site in human Huh-7 cells at 1 uM by KiNativ Profiling analysis relative to control. The note with it: condition cancer.
Experiment [14] addresses T1, Phosphatidylinositol 5-phosphate 4-kinase type-2 gamma (Homo sapiens) (UniProt Q8TBX8).
T1 sequence (whole entry): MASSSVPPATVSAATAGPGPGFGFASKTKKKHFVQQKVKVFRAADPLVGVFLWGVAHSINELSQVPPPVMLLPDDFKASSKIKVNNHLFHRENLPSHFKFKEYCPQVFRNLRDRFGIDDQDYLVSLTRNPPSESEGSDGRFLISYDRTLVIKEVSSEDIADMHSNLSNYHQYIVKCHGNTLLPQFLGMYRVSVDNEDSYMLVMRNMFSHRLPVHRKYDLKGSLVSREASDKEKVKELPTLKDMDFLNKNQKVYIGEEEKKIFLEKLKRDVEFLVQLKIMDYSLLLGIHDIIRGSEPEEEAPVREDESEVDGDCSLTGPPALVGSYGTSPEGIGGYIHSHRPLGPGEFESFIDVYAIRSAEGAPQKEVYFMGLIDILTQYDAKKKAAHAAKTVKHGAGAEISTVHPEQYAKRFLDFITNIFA
As to the kind of experiment: Inhibition of PIP5K2C ATP labeling site harbouring VKELPTLKDMDFLNK in human Huh-7 cells at 1 uM by KiNativ Profiling analysis relative to control. The experiment is classed as cell-based.

Experiment [15] is described as follows: Inhibition of PKD1/2 K2 labeling site in human Huh-7 cells at 1 uM by KiNativ Profiling analysis relative to control. To be noted: condition cancer.
For experiment [16], the target named is Glycogen synthase kinase-3 alpha (Homo sapiens) (UniProt P49840). As to the kind of experiment: Inhibition of GSK3A Lys2 labeling site in human Huh-7 cell lysate at 1 uM by KiNativ Profiling analysis relative to control. In kind it is subcellular.
Experiment [17] concerns the target Microtubule-associated serine/threonine-protein kinase 2 (Homo sapiens) (UniProt Q6P0Q8). As to the kind of experiment: Inhibition of MAST2 Lys2 labeling site harbouring DLKPDNLLITSMGHIK in human Huh-7 cells at 1 uM by KiNativ Profiling analysis relative to control. In kind it is cell-based.
For experiment [18], the target named is Microtubule-associated serine/threonine-protein kinase 3 (Homo sapiens) (UniProt O60307). As to the kind of experiment: Inhibition of MAST3 Lys2 labeling site in human Huh-7 cells at 1 uM by KiNativ Profiling analysis relative to control. In kind it is cell-based.

The term inhibition denotes the drop in the measured response relative to a control, in per cent. As usually defined, the residual activity is the signal under treatment as a percentage of the control signal.

SMILES strings stand for the structures. Active and inactive are the calls of the source. No cut-off for these calls is given here.

Chain of Serine/threonine-protein kinase WNK4 (Homo sapiens) (Q96J92 whole entry): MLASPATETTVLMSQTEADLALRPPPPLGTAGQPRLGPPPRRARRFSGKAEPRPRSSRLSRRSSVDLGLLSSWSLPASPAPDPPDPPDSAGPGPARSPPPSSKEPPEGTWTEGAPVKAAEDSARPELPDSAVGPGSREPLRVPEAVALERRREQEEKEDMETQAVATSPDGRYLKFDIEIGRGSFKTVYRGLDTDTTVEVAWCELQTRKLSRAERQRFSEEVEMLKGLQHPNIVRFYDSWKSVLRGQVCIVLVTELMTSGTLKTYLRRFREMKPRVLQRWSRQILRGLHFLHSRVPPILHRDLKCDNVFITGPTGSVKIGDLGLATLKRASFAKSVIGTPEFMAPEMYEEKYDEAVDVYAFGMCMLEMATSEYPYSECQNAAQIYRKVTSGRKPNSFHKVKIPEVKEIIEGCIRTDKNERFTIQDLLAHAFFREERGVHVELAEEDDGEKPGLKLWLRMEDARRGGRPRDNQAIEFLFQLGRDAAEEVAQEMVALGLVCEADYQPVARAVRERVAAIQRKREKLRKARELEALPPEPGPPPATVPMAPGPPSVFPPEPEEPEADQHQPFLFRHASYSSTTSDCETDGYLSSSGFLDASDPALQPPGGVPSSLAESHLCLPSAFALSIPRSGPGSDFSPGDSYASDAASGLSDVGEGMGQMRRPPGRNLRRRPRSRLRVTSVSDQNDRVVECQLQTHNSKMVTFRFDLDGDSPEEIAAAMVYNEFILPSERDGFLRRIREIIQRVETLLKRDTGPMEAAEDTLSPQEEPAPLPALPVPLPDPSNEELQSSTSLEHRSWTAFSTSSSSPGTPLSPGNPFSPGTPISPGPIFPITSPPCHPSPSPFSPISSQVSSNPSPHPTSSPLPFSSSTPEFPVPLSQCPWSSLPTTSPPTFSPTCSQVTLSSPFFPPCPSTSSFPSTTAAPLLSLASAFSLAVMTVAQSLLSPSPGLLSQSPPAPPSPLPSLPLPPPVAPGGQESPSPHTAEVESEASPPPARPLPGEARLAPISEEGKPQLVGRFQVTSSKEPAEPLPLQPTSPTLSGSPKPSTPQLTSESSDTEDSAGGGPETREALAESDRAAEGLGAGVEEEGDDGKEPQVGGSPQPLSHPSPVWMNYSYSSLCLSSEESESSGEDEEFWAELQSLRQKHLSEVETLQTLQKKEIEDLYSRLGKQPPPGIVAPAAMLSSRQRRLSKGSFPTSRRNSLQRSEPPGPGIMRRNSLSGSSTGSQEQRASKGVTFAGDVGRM
Chain of Ribosomal protein S6 kinase alpha-5 (Homo sapiens) (O75582 whole entry, looked up, the tested form may be a part): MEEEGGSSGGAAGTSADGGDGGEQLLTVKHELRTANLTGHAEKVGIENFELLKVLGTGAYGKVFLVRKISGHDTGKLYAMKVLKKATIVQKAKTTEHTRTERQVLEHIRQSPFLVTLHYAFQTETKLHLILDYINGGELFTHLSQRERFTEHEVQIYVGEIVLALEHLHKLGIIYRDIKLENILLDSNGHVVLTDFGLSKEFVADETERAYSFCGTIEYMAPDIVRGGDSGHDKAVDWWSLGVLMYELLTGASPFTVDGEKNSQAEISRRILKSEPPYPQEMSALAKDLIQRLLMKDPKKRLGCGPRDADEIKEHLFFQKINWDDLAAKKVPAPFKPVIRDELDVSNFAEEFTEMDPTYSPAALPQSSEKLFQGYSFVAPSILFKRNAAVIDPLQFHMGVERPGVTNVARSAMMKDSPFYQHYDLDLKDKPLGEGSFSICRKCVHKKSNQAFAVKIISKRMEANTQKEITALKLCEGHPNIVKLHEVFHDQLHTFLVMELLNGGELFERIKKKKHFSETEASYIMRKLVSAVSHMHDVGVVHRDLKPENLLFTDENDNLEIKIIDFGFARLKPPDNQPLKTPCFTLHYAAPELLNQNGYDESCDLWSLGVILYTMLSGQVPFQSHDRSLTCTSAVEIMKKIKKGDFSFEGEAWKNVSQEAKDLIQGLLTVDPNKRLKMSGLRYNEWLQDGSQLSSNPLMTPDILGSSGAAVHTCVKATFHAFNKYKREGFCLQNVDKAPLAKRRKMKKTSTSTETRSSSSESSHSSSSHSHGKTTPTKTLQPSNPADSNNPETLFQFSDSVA
Chain of Proto-oncogene tyrosine-protein kinase Src (P12931 2-536 limits assumed): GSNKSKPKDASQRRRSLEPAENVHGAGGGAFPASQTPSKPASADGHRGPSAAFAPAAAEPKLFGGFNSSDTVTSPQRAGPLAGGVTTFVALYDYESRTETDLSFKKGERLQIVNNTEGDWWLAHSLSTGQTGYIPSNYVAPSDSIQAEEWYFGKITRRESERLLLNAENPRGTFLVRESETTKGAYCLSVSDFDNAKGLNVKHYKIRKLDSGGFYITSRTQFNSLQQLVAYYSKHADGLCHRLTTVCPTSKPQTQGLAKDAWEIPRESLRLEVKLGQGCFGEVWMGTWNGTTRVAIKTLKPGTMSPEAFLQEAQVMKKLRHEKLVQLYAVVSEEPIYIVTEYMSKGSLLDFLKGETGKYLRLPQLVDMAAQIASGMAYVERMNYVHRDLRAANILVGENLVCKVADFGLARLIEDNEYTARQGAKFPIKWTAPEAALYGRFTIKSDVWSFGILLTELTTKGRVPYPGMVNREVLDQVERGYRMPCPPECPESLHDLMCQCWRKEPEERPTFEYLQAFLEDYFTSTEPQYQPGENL
Chain of Interleukin-1 receptor-associated kinase 1 (Homo sapiens) (P51617 whole entry, looked up): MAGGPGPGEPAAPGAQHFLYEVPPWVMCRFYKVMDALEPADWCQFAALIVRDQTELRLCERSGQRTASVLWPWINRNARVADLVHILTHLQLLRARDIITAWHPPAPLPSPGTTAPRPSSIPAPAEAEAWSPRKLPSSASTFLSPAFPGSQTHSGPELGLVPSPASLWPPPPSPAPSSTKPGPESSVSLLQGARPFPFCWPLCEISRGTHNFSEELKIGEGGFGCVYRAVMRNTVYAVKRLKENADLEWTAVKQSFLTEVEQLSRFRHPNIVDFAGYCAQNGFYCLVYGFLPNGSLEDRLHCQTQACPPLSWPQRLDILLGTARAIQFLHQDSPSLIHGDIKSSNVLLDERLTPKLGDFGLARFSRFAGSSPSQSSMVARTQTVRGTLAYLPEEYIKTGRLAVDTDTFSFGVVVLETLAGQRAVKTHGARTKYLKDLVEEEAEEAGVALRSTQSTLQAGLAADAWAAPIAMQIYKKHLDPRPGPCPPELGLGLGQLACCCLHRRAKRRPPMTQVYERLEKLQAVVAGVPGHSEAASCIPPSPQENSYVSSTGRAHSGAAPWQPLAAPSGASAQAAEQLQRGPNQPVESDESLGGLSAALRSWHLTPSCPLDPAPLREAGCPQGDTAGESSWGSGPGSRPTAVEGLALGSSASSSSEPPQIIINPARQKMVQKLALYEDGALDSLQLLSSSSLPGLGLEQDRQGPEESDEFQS
Chain of Epidermal growth factor receptor (Homo sapiens) (P00533 whole entry): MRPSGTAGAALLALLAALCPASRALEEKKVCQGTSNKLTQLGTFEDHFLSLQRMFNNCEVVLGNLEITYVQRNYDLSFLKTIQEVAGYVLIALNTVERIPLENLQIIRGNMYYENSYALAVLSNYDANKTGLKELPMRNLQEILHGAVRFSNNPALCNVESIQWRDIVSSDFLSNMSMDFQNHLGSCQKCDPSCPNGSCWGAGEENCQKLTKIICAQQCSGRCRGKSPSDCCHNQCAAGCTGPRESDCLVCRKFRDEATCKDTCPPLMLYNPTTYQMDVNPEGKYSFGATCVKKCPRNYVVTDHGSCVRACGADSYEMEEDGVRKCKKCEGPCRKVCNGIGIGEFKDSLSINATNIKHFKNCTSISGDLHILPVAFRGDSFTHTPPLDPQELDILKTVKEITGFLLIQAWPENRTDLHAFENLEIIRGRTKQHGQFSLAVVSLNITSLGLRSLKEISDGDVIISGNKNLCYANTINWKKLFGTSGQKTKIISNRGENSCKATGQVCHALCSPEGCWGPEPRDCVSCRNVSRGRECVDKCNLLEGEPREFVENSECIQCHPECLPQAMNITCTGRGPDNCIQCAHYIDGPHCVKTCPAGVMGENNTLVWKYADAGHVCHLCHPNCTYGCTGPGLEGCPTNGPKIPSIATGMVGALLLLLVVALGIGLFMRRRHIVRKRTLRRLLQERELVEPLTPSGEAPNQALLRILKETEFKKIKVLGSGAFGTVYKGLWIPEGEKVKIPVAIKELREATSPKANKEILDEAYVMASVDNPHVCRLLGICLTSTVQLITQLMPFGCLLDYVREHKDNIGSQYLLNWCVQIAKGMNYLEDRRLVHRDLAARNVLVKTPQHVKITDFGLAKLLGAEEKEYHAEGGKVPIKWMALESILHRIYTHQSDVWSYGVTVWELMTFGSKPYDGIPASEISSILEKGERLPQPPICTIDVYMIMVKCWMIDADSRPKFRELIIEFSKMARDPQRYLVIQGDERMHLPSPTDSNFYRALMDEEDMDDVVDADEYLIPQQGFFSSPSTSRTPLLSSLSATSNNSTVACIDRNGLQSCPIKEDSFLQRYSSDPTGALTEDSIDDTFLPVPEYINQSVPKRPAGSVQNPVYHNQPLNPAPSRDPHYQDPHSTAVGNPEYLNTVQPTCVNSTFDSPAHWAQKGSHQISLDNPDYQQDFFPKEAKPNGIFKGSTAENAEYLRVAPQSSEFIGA
Chain of Calcium-dependent protein kinase 1 (Plasmodium falciparum) (P62344 2-524 limits assumed): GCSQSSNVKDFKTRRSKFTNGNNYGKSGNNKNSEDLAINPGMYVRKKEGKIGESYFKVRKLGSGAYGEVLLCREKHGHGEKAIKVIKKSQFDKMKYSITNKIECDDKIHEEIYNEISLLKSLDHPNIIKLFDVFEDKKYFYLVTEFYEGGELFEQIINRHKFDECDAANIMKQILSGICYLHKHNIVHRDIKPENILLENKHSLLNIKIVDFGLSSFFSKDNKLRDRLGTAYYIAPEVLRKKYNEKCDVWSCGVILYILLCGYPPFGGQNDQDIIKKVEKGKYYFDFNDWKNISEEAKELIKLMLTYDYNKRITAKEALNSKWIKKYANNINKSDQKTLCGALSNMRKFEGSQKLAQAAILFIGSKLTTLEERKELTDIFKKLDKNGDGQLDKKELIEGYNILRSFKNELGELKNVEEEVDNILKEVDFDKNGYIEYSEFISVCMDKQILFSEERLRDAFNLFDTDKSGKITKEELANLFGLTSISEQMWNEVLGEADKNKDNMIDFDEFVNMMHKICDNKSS

On to `CCN1CCN(Cc2ccc(NC(=O)c3ccc(C)c(/C=C/c4cnc5[nH]ccc5c4OC)c3)cc2C(F)(F)F)CC1`, for which the values for the inhibition in experiment [1], in experiment [2] and in experiment [3] were 1.8%, 2.8% and 7.6%, respectively. Further, the residual activity in [4] is 2%; in [5] it was 4.3%.

On to `CCN1CCN(Cc2ccc(NC(=O)c3ccc(C)c(Oc4ccnc5[nH]ccc45)c3)cc2C(F)(F)F)CC1`, for which the inhibition was determined as 0.2% in experiment [6]; 0.7% in experiment [10]; 2.5% in [11]; 7.9% in experiment [12]; 2.9% in experiment [14]. Moreover, the inhibition entry in experiment [7], in [8] and in [9] was “inactive” in each case. For the same compound, the inhibition at 1 µM in [13] was 6.6%; in [15], -9.2%.

As for `CNc1cc(Oc2cc(C(=O)Nc3cc(N4CCN(C)CC4)cc(C(F)(F)F)c3)ccc2C)ncn1`, the inhibition is -5.8% in [16], 53.8% in [17] and 14.9% in experiment [18].
